# Measured values taken from patent publication US20160120863A1, “SLC2A TRANSPORTER INHIBITORS” (IOMET PHARMA LTD., priority 2013, published 2016).
# Target: T1, human GLUT1 (Homo sapiens, UniProt P11166)
# T1 construct: expressed in transfected cells
# T1 sequence (P11166 1-492): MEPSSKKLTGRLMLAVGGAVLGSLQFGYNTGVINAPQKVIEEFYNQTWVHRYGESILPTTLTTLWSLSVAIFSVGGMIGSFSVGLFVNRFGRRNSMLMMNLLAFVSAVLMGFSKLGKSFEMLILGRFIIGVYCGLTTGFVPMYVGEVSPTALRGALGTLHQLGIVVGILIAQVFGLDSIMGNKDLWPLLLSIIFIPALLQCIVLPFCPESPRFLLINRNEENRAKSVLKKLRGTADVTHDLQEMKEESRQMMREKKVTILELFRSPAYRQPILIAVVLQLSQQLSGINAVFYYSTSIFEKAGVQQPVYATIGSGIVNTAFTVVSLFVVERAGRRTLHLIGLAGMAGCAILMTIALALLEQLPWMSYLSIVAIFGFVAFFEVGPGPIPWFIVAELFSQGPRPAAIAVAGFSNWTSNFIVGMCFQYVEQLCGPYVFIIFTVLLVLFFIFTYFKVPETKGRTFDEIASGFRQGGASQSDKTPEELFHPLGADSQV
# Test: [3H]-deoxy-D-glucose uptake assay, GLUT1
# Type: cell-based
# Details: [3H]-deoxy-D-glucose uptake in HEK293 cells stably expressing human GLUT1
# Experimental: HEK293 cells were engineered to stably express either human GLUT1, GLUT2, GLUt3 or GLUT4 by transfection with the pReceiver-Lv105 plasmid, containing either hGLUT1, hGLUT2, hGLUT3, or hGLUT4 gene constructs with lipofectamine 2000, hGLUT1- hGLUT2- hGLUT3- or hGLUT4-overexpressing polyclonal populations were isolated under purinomycin selective pressure (1 μg/ml) and maintained in Dulbecco's modified Eagle's medium supplemented with 1 μg/ml purinomycin+10% foetal bovine serum (FBS).
# 60,000 cells per well were seeded overnight into poly-D-lysine coasted 96-well plates. […] 90 μl of test compounds were added in glucose-free uptake buffer and cells were incubated at 37° C. for 30 min.
# Cells were then washed twice with ice-cold PBS and 100 μl of Microscint-20 was added per well. Glucose uptake was quantified with a scintillation counter. The half maximal inhibitory concentration (IC50) (a measure of the effectiveness of the test compound in inhibiting glucose uptake) was determined.
row,Compound,GLUT1 pIC50
1,Clc1ccc(-c2nc3ccc(-c4ccccc4)cn3c2CN2CCOCC2)cc1 [Compound 1],++ (pIC50 5.00-5.99)
2,Clc1ccc(-c2nc3ccccn3c2CN2CCOCC2)cc1 [Compound 3],++ (pIC50 5.00-5.99)
3,Clc1ccc(-c2nc3ccc(Cl)cn3c2CN2CCSCC2)cc1 [Compound 4],+ (pIC50 4.00-4.99)
4,Clc1ccc(-c2nc3ccc(Cl)cn3c2CN2CCCCC2)cc1 [Compound 5],+ (pIC50 4.00-4.99)
5,Cc1ccc2nc(-c3ccccc3)c(CN3CCSCC3)n2c1 [Compound 6],+− (pIC50 < 4.00)
6,Cc1ccc2nc(-c3ccccc3)c(CN3CCN(c4ccccc4F)CC3)n2c1 [Compound 7],+ (pIC50 4.00-4.99)
7,CCS(=O)(=O)N1CCN(Cc2c(-c3cccc([N+](=O)[O-])c3)nc3ccc(-c4ccccc4)cn23)CC1 [Compound 9],++ (pIC50 5.00-5.99)
8,Cc1ccc(-c2cn3cc(-c4ccccc4)ccc3n2)cc1 [Compound 11],+ (pIC50 4.00-4.99)
9,O=[N+]([O-])c1ccc(-c2nc3ccc(-c4ccccc4)cn3c2CN2CCNCC2)cc1 [Compound 12],+ (pIC50 4.00-4.99)
10,O=C(c1cccs1)N1CCN(Cc2c(-c3ccc([N+](=O)[O-])cc3)nc3ccc(-c4ccccc4)cn23)CC1 [Compound 13],+++ (pIC50 ≧ 6.00)
11,O=C(c1ccco1)N1CCN(Cc2c(-c3cccc([N+](=O)[O-])c3)nc3ccc(-c4ccccc4)cn23)CC1 [Compound 15],++ (pIC50 5.00-5.99)
12,COc1cccc(-c2nc3ccc(-c4ccccc4)cn3c2CN2CCN(C(=O)C3CCC3)CC2)c1 [Compound 16],++ (pIC50 5.00-5.99)
13,COCCNC(=O)CCc1c(-c2ccc([N+](=O)[O-])cc2)nc2ccc(-c3ccccc3)cn12 [Compound 17],+− (pIC50 < 4.00)
14,O=C(COCc1ccccc1)N1CCN(Cc2c(-c3ccc(Cl)cc3)nc3ccc(-c4ccccc4)cn23)CC1 [Compound 18],+++ (pIC50 ≧ 6.00)
15,Cc1cccc(C)c1NC(=O)N1CCN(Cc2c(-c3ccc(Cl)cc3)nc3ccc(-c4ccccc4)cn23)CC1 [Compound 19],+++ (pIC50 ≧ 6.00)
16,COc1cccc(-c2nc3ccc(-c4ccccc4)cn3c2CN2CCN(C(=O)c3cccs3)CC2)c1 [Compound 20],+++ (pIC50 ≧ 6.00)
17,O=C(c1cccc([N+](=O)[O-])c1)N1CCN(Cc2c(-c3ccc(Cl)cc3)nc3ccc(-c4ccccc4)cn23)CC1 [Compound 21],++ (pIC50 5.00-5.99)
18,O=C(C1CCCC1)N1CCN(Cc2c(-c3ccc([N+](=O)[O-])cc3)nc3ccc(-c4ccccc4)cn23)CC1 [Compound 24],+++ (pIC50 ≧ 6.00)
19,CCS(=O)(=O)N1CCN(Cc2c(-c3cccc(OC)c3)nc3ccc(-c4ccccc4)cn23)CC1 [Compound 25],++ (pIC50 5.00-5.99)
20,COc1cccc(-c2nc3ccc(-c4ccccc4)cn3c2CN2CCN(C(=O)C3CC3)CC2)c1 [Compound 26],++ (pIC50 5.00-5.99)
21,Clc1ccc(-c2nc3ccc(Cl)cn3c2CN2CCOCC2)cc1 [Compound 27],++ (pIC50 5.00-5.99)
22,CC1CN(Cc2c(-c3ccccc3)nc3ccc(Cl)cn23)CC(C)O1 (centres unmarked) [Compound 28],++ (pIC50 5.00-5.99)

row,Compound,GLUT1 pIC50
1,CC1CN(Cc2c(-c3ccccc3)nc3ccccn23)CC(C)O1 (centres unmarked) [Compound 29],+ (pIC50 4.00-4.99)
2,Cc1ccc2nc(-c3ccccc3)c(CN3CCNC(=O)C3)n2c1 [Compound 30],+− (pIC50 < 4.00)
3,O=C(C1CCC1)N1CCN(Cc2c(-c3cccc([N+](=O)[O-])c3)nc3ccc(-c4ccccc4)cn23)CC1 [Compound 33],++ (pIC50 5.00-5.99)
4,COc1cccc(-c2nc3ccc(-c4ccccc4)cn3c2CN2CCN(C(=O)CC(C)C)CC2)c1 [Compound 34],++ (pIC50 5.00-5.99)
5,COc1cccc(-c2nc3ccc(-c4ccccc4)cn3c2CN2CCN(C(=O)C3CCCC3)CC2)c1 [Compound 35],+++ (pIC50 ≧ 6.00)
6,COc1ccc(C(=O)N2CCN(Cc3c(-c4ccc(OC)cc4)nc4ccc(-c5ccccc5)cn34)CC2)cc1 [Compound 36],+++ (pIC50 ≧ 6.00)
7,CC(C)(C)CC(=O)N1CCN(Cc2c(-c3ccc([N+](=O)[O-])cc3)nc3ccc(-c4ccccc4)cn23)CC1 [Compound 38],++ (pIC50 5.00-5.99)
8,COc1cccc(-c2nc3ccc(-c4ccccc4)cn3c2CN2CCN(C(=O)c3ccccc3Cl)CC2)c1 [Compound 39],+ (pIC50 4.00-4.99)
9,Cc1ccc(C(=O)N2CCN(Cc3c(-c4ccc(F)cc4)nc4ccc(-c5ccccc5)cn34)CC2)cc1 [Compound 40],++ (pIC50 5.00-5.99)
10,CC(C)(C)NC(=O)N1CCN(Cc2c(-c3ccc(Cl)cc3)nc3ccc(-c4ccccc4)cn23)CC1 [Compound 41],++ (pIC50 5.00-5.99)
11,CC(C)(C)c1ccc(C(=O)N2CCN(Cc3c(-c4ccc(Cl)cc4)nc4ccc(-c5ccccc5)cn34)CC2)cc1 [Compound 42],+ (pIC50 4.00-4.99)
12,CC(C)CC(=O)N1CCN(Cc2c(-c3ccc(Cl)cc3)nc3ccc(-c4ccccc4)cn23)CC1 [Compound 43],+++ (pIC50 ≧ 6.00)
13,O=C(c1ccccc1)N1CCN(Cc2c(-c3ccc(Cl)cc3)nc3ccc(-c4ccccc4)cn23)CC1 [Compound 44],+++ (pIC50 ≧ 6.00)
14,O=C(c1ccccc1F)N1CCN(Cc2c(-c3ccc(Cl)cc3)nc3ccc(-c4ccccc4)cn23)CC1 [Compound 45],+++ (pIC50 ≧ 6.00)
15,CC(C)(C)CC(=O)N1CCN(Cc2c(-c3ccc(Cl)cc3)nc3ccc(-c4ccccc4)cn23)CC1 [Compound 46],++ (pIC50 5.00-5.99)
16,O=C(C1CCCC1)N1CCN(Cc2c(-c3ccc(Cl)cc3)nc3ccc(-c4ccccc4)cn23)CC1 [Compound 47],+++ (pIC50 ≧ 6.00)
17,COc1cccc(-c2nc3ccc(-c4ccccc4)cn3c2CN2CCN(C(=O)c3ccc(F)cc3)CC2)c1 [Compound 49],+++ (pIC50 ≧ 6.00)
18,Cc1ccc(-c2nc3ccc(-c4ccccc4)cn3c2CN2CCN(C(=O)c3ccc(F)cc3)CC2)cc1 [Compound 50],+++ (pIC50 ≧ 6.00)
19,COc1cccc(-c2nc3ccc(-c4ccccc4)cn3c2CN2CCN(C(=O)c3ccco3)CC2)c1 [Compound 51],++ (pIC50 5.00-5.99)
20,COc1cccc(-c2nc3ccc(-c4ccccc4)cn3c2CN2CCN(C(=O)c3cccc(F)c3)CC2)c1 [Compound 52],+++ (pIC50 ≧ 6.00)
21,O=C(c1ccc(F)cc1)N1CCN(Cc2c(-c3ccc(Cl)cc3)nc3ccc(-c4ccccc4)cn23)CC1 [Compound 53],+++ (pIC50 ≧ 6.00)
22,COc1cccc(-c2nc3ccc(-c4ccccc4)cn3c2CN2CCN(C(=O)C(C)C)CC2)c1 [Compound 54],++ (pIC50 5.00-5.99)
